Data on 24 molecules can be found in ChEMBL document CHEMBL5518159, “Thiazole-based analogues as potential antibacterial agents against methicillin-resistant Staphylococcus aureus (MRSA) and their SAR elucidation” (Eur J Med Chem, 2023).

What all share (assay type): functional
Experiment [1] deals with Staphylococcus aureus. Nature of the experiment: Antimicrobial activity against Methicillin-resistant Staphylococcus aureus ATCC 43300 assessed as bacterial growth inhibition incubated for 18 hrs by broth micro-dilution method.
The subject of experiment [2] is Staphylococcus aureus. Description: Antibacterial activity against Methicillin-sensitive Staphylococcus aureus ATCC 25923 assessed as reduction in bacterial growth incubated for 24 hrs by CLSI based broth microdilution method.
For experiment [3], the system named is Staphylococcus aureus. Nature of the experiment: Antibacterial activity against Methicillin-sensitive Staphylococcus aureus ATCC 25923 assessed as reduction in microbial growth by CLSI based broth microdilution method. (In general: In broth dilution the organism is exposed to a series of concentrations in liquid medium.)
The test system of experiment [4] is Staphylococcus aureus. Nature of the experiment: Antibacterial activity against Methicillin-resistant Staphylococcus aureus ATCC 43300 assessed as reduction in bacterial growth measured for 24 hrs by CLSI based broth microdilution method.
The test system of experiment [5] is Staphylococcus aureus. Nature of the experiment: Antibacterial activity against methicillin-resistant Staphylococcus aureus ATCC 43300 assessed as reduction in bacterial growth by CLSI protocol based broth microdilution method.
Experiment [6] relates to Staphylococcus aureus. Nature of the experiment: Antibacterial activity against methicillin-resistant Staphylococcus aureus ATCC 43300 assessed as bacterial growth inhibition incubated for 24 hrs by broth dilution method.
Experiment [7] deals with Staphylococcus aureus. Description: Antibacterial activity against methicillin-resistant Staphylococcus aureus ATCC 33592 assessed as reduction in microbial growth incubated for 16 to 20 hrs by CLSI based two-fold serial dilution method. As to conditions: time 16-20 hrs.
Experiment [8] has as its system Staphylococcus aureus. Nature of the experiment: Antibacterial activity against Methicillin-resistant Staphylococcus aureus assessed as reduction of microbial growth by Muller Hinton broth based dilution assay.
For experiment [9], the system named is Staphylococcus aureus. Description: Antibacterial activity against methicillin-resistant Staphylococcus aureus assessed as reduction in microbial growth by CLSI based broth microdilution method.
Experiment [10] deals with Staphylococcus aureus. Description: Antibacterial activity against clinical isolate Methicillin resistant Staphylococcus aureus 2658 RCMB assessed as reduction in microbial growth incubated for 16 to 24 hrs by CLSI-based Muller Hinton broth based microdilution method. The note with it: time 16-24 hrs.
For experiment [11], the system named is Staphylococcus aureus. Description: Antibacterial activity against Methicillin-resistant Staphylococcus aureus AUMC 261 assessed as bacterial growth inhibition incubated for 24 hrs by broth microdilution analysis.
The test system of experiment [12] is Escherichia coli. Description: Antibacterial activity against Escherichia coli ATCC 25922 assessed as reduction in bacterial growth incubated for 18 to 24 hrs by broth microdilution method. The note with it: time 18-24 hrs.
The test system of experiment [13] is Staphylococcus aureus. Nature of the experiment: Antibacterial activity against Methicillin-resistant Staphylococcus aureus […] assessed as reduction in microbial growth incubated for 18 to 24 hrs by broth micro-dilution method. As to conditions: time 18-24 hrs.
For experiment [14], the system named is Escherichia coli. Nature of the experiment: Antibiofilm activity against Escherichia coli ATCC 25922 assessed as reduction in biofilm formation at 50 uM incubated for 24 hrs by crystal violet staining based analysis relative to control. The arrangement: scale not given: the % may be the effect or the level left.
Experiment [15] has as its system Staphylococcus aureus. Description: Antibacterial activity against methicillin-resistant Staphylococcus aureus assessed as inhibition of bacterial growth measured after 24 hrs by broth micro-dilution method.
The test system of experiment [16] is Staphylococcus aureus. Description: Antibacterial activity against vancomycin-resistant Staphylococcus aureus assessed as bacterial growth inhibition incubated for 18 to 24 hrs by CLSI-based microdilution method. The note with it: time 18-24 hrs.

Structures are written as SMILES. Converted amounts (≈) assume the structure as drawn.

Broadly, the MIC is the smallest concentration in the dilution series that meets the test's criterion for growth inhibition. Turning to `N#C/C(C(=O)NCc1ccco1)=C1/SC(Cc2ccc(Cl)cc2)C(=O)N1c1ccccc1` (stereo not drawn), the MIC in the experiment with Staphylococcus aureus [1] is 4 µg/mL (≈ 8.62 µM).

Usually MIC50 stands for the lowest concentration that inhibits either 50% of growth or 50% of the strains tested, depending on the study. What is called MIC90 is an inhibitory concentration at the 90% level, which refers to growth in some studies and to a panel of isolates in others. Turning to `CC(=O)c1sc(-c2cccnc2)nc1C`, the figures for the MIC50 with Staphylococcus aureus [2] and in the experiment with Staphylococcus aureus [4] were 2 µg/mL (≈ 9.16 µM) and 4 µg/mL (≈ 18.3 µM), respectively. Further, the MIC90 with Staphylococcus aureus [3] came out at 4 µg/mL.

One may read the MBC as the lowest tested concentration that kills the bacteria rather than only halting them. As to `O=C1CSC(c2ccc([N+](=O)[O-])cc2)N1c1nc2ccc(OC(F)(F)F)cc2s1` (stereo not drawn), in the experiment on Staphylococcus aureus [5], the MIC turned out to be 250 µg/mL (≈ 566 µM). Moreover, the MBC in the experiment on Staphylococcus aureus [6] stood at 120 µg/mL (≈ 272 µM).

`O=C1CSC(c2cccc(Cl)c2Cl)N1c1nc2ccc(OC(F)(F)F)cc2s1` (stereo not drawn): in the experiment with Staphylococcus aureus [5], the MIC was 250 µg/mL (≈ 537 µM). Further, the MBC with Staphylococcus aureus [6] amounted to 120 µg/mL (≈ 258 µM).

For `O=C1CSC(c2c(F)cccc2F)N1c1nc2ccc(OC(F)(F)F)cc2s1` (stereo not drawn), in the experiment with Staphylococcus aureus [5], the MIC came to 250 µg/mL (≈ 578 µM). Moreover, the MBC with Staphylococcus aureus [6] came out at 120 µg/mL (≈ 278 µM).

Regarding `O=C1CSC(c2ccc(O)cc2)N1c1nc2ccc(OC(F)(F)F)cc2s1` (stereo not drawn), the MIC with Staphylococcus aureus [5] was 250 µg/mL (≈ 606 µM). Further, the MBC with Staphylococcus aureus [6] was determined as 120 µg/mL (≈ 291 µM).

On to `O=C1CSC(c2ccc(Cl)cc2Cl)N1c1nc2ccc(OC(F)(F)F)cc2s1` (stereo not drawn), for which, in the experiment with Staphylococcus aureus [5], the MIC was 250 µg/mL (≈ 537 µM). The MBC in the experiment on Staphylococcus aureus [6] was 120 µg/mL (≈ 258 µM).

With `CCn1cc(-c2csc(N)n2)c(=O)c2cc(F)c(N3CCN(Cc4ccc(Cl)cc4)CC3)cc21`, in the experiment with Staphylococcus aureus [7], the minimal inhibitory concentration (MIC) is 8 µg/mL.

For `CCn1cc(-c2csc(N)n2)c(=O)c2cc(F)c(N3CCN(Cc4ccc(Cl)cc4Cl)CC3)cc21`, the MIC with Staphylococcus aureus [7] amounted to 8 µg/mL.

For the molecule `O=C1CSC(c2c(Cl)cccc2Cl)N1c1nc2ccc(OC(F)(F)F)cc2s1` (stereo not drawn), the MIC in the experiment on Staphylococcus aureus [5] amounted to 250 µg/mL (≈ 537 µM). Besides, the MBC in the experiment with Staphylococcus aureus [6] turned out to be 120 µg/mL (≈ 258 µM).

In the case of `O=C1CSC(c2ccc(F)cc2)N1c1nc2ccc(OC(F)(F)F)cc2s1` (stereo not drawn), in the experiment on Staphylococcus aureus [5], the MIC amounted to 250 µg/mL (≈ 603 µM). Besides, the MBC with Staphylococcus aureus [6] was found to be 120 µg/mL (≈ 290 µM).

Turning to `CCn1cc(-c2csc(N)n2)c(=O)c2cc(F)c(N3CCN(Cc4ccc(Cl)c(Cl)c4)CC3)cc21`, in the experiment with Staphylococcus aureus [7], the MIC worked out at 8 µg/mL.

Take `O=C1CSC(c2ccc(Cl)cc2)N1c1nc2ccc(OC(F)(F)F)cc2s1` (stereo not drawn): the MIC with Staphylococcus aureus [5] was found to be 250 µg/mL (≈ 580 µM). Further, the MBC in the experiment on Staphylococcus aureus [6] worked out at 120 µg/mL (≈ 279 µM).

Take `O=C1CSC(c2c(F)cccc2Cl)N1c1nc2ccc(OC(F)(F)F)cc2s1` (stereo not drawn): the MIC in the experiment on Staphylococcus aureus [5] came to 250 µg/mL (≈ 557 µM). Moreover, the MBC in the experiment with Staphylococcus aureus [6] was found to be 120 µg/mL (≈ 267 µM).

As to `COc1ccc(/C=C(\Oc2ccc3c(CN(CCO)CCO)cc(=O)oc3c2)C(=O)c2nccs2)cc1`, the MIC in the experiment on Staphylococcus aureus [8] is 2 µg/mL.

As to `O=C(/C(=C/c1ccccc1Cl)n1cnc2cc(Cl)ccc2c1=O)c1nccs1`, the MIC in the experiment on Staphylococcus aureus [9] came to 2 µg/mL.

For `Cc1nc(-c2ccc3ccccc3c2)sc1-c1nnc(NC(=N)N)o1`, in the experiment on Staphylococcus aureus [10], the MIC turned out to be 1.9 µg/mL.

Take `O=C(O)c1cn(C2CC2)c2cc(N3CCN(C(=O)CN4C(=O)S/C(=C\c5ccccc5)C4=O)CC3)c(F)cc2c1=O`: in the experiment with Staphylococcus aureus [11], the minimal inhibitory concentration (MIC) came out at 2.88 µg/mL (≈ 4.99 µM).

As to `CCOC1=NC(=N/N=C2\C(=O)Nc3ccc(Br)cc32)/S/C1=N/Nc1ccc([N+](=O)[O-])cc1`, the MIC with Escherichia coli [12] worked out at 8 µg/mL (≈ 15.5 µM); in the experiment on Staphylococcus aureus [13], 8 µg/mL. Moreover, the Activity in the experiment with Escherichia coli [14] is listed as 90%.

On to `Cc1cnc(/C=c2\[nH]c(=O)/c(=C\c3ccc(Br)cc3)s2)s1`, for which the MIC with Staphylococcus aureus [15] was found to be 40 µg/mL (≈ 105 µM).

Turning to `O=C(O)CCN(c1ccc(Nc2ccccc2)cc1)c1nc(-c2ccc(Cl)cc2)cs1`, the MIC with Staphylococcus aureus [16] stood at 1 µg/mL (≈ 2.22 µM).

As to `Cc1ccc(C2SCC(=O)N2c2nc3ccc(OC(F)(F)F)cc3s2)cc1` (stereo not drawn), in the experiment with Staphylococcus aureus [5], the MIC was 250 µg/mL (≈ 609 µM). Besides, the MBC in the experiment with Staphylococcus aureus [6] turned out to be 120 µg/mL (≈ 292 µM).

In the case of `Cc1cnc(/C=c2\[nH]c(=O)/c(=C\c3cccc(Br)c3)s2)s1`, the MIC with Staphylococcus aureus [15] amounted to 40 µg/mL (≈ 105 µM).

Consider `O=C(O)c1cn(C2CC2)c2cc(N3CCN(C(=O)CN4C(=O)S/C(=C\c5ccoc5)C4=O)CC3)c(F)cc2c1=O`, for which the MIC in the experiment with Staphylococcus aureus [11] was determined as 2.88 µg/mL (≈ 5.08 µM).
